Assay results published in ChEMBL document CHEMBL1201862, “PubChem BioAssay data set” (2004).
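Dose response: 5 concentrations. Exposure: 48 h. Format: 96-well plates. Endpoint: linear interpolation; highest concentration if not reached. GI50: concentration for 50% inhibition of growth.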 Active and inactive are the calls of the source. Rule as the data show it: active = GI50 up to about 1.1 µM and inactive = higher.

How the values were obtained:
Assay in all cases: NCI-60 cell line screen, 48 h
MDA-N = tested on: MDA-N
BT-549 = tested on: BT-549
HOP-18 = tested on: HOP-18
SNB-78 = tested on: SNB-78
DMS-114 = tested on: DMS-114
DMS-273 = tested on: DMS-273
KM-20L2 = tested on: KM-20L2
XF498 = tested on: XF498
RXF 631 = tested on: RXF 631

SMILES | GI50 (MDA-N) | GI50 (BT-549) | GI50 (SNB-78) | GI50 (DMS-114) | GI50 (DMS-273) | GI50 (KM-20L2) | further results
O=C(Nc1cccc2ccccc12)c1ccccc1 | 77.6 µM (inactive) | > 100 µM (inactive) | – | – | – | – | –
Clc1c2nc3ccccc3c-2[nH]c2ccccc12 | 3.57 µM (inactive) | 64.1 µM (inactive) | – | – | – | – | –
COC(=O)c1c(C)c2c(c(C)c1O)OC(=O)c1c(C)cc(O)c(C=O)c1O2 | > 100 µM (inactive) | > 100 µM (inactive) | – | – | – | – | –
Cc1cc(O)cc2c1O[C@@]1(C)CCC3[C@@]4(C)CC[C@H](O)C(C)(C)C4CC[C@@]3(C)[C@H]1C2 (stereo not given in full) | – | – | 5.98 µM (inactive) | 5.09 µM (inactive) | 4.05 µM (inactive) | – | GI50 (HOP-18): 14.7 µM (inactive)
CC(=O)Nc1ccc(-c2nnc(SCC(=O)Nc3cccc(Cl)c3)o2)cc1 | – | – | > 100 µM (inactive) | 1.36 µM (inactive) | 17.9 µM (inactive) | 15.3 µM (inactive) | GI50 (HOP-18): 12.6 µM (inactive)
CN1CCN(C2CC(=O)c3c(Cl)sc(Cl)c32)CC1 (stereo not given) | 9.02 µM (inactive) | 20.3 µM (inactive) | – | – | – | – | –
c1cc2c(c(-c3c4ccccc4nc4ccccc34)c1)CC1(CC2)OCCO1 | > 100 µM (inactive) | > 100 µM (inactive) | – | – | – | – | –
CCN(CC)CCn1nc(N)c2nc3cc(Cl)ccc3nc21 | 86.5 µM (inactive) | > 100 µM (inactive) | – | – | – | – | –
O=C1C=CC(=O)c2c1ccc1c3ccccc3n(Cc3ccc([N+](=O)[O-])cc3)c21 | > 100 µM (inactive) | > 100 µM (inactive) | – | – | – | – | –
COc1ccc(CC2OC3(CCCCC3)CC3CCCCN32)cc1 (stereo not given) | 52.6 µM (inactive) | > 100 µM (inactive) | – | – | – | – | –
CS(=O)(=O)OC1CN2CCC1CC2 (stereo not given) | > 100 µM (inactive) | > 100 µM (inactive) | – | – | – | – | –
COC(=O)CC1C(=O)OCc2c1cc1n(c2=O)Cc2c-1nc1ccccc1c2OC (stereo not given) | – | – | – | 34.3 µM (inactive) | 12.7 µM (inactive) | > 100 µM (inactive) | GI50 (HOP-18): 64.7 µM (inactive); GI50 (XF498): > 100 µM (inactive)
CC(=O)NNc1nc(C)c(C(=O)NNC(=O)C(=O)Nc2c(C)cccc2C)s1 | – | – | 36.1 µM (inactive) | – | 31.8 µM (inactive) | 35.2 µM (inactive) | GI50 (HOP-18): 29.2 µM (inactive); GI50 (RXF 631): 26.2 µM (inactive)
CN(C)C(=S)/N=c1\ss/c(=N\C(=S)N(C)C)n1Cc1ccco1 | – | – | > 100 µM (inactive) | > 100 µM (inactive) | > 100 µM (inactive) | > 100 µM (inactive) | GI50 (HOP-18): > 100 µM (inactive)
O=C1[C@@H]2C3C=CC([C@H]4C(=O)N(CO)C(=O)[C@@H]34)[C@@H]2C(=O)N1CO | – | – | > 100 µM (inactive) | 32.1 µM (inactive) | > 42.7 µM (inactive) | > 31.6 µM (inactive) | GI50 (HOP-18): 34 µM (inactive); GI50 (XF498): > 100 µM (inactive)
COC(=O)/C=C\C(C#N)(C#N)/N=C/c1cccc(OC)c1 | 7.03 µM (inactive) | 7.74 µM (inactive) | – | – | – | – | –
CCOP(=O)(OCC)c1ccc(=O)[nH]c1-c1cccs1 | > 100 µM (inactive) | > 100 µM (inactive) | – | – | – | – | –
c1ccc2c(c1)N=C(c1cccc3ccccc13)CC(c1cccc3ccccc13)S2 (stereo not given) | – | – | 5.53 µM (inactive) | 2.74 µM (inactive) | 4.46 µM (inactive) | 3.24 µM (inactive) | GI50 (HOP-18): 5.57 µM (inactive); GI50 (XF498): 9.79 µM (inactive)
CCC(C)OC(=O)C1C2CCC(O2)C1C(=O)O (stereo not given) | – | – | > 100 µM (inactive) | > 41.6 µM (inactive) | > 42.8 µM (inactive) | > 44.9 µM (inactive) | GI50 (HOP-18): > 100 µM (inactive)
O=C(CC1(O)C(=O)Nc2ccccc21)c1ccncc1 (stereo not given) | – | – | > 100 µM (inactive) | > 100 µM (inactive) | > 100 µM (inactive) | > 100 µM (inactive) | –
NCCCc1ccc2oc3ccccc3c2c1 | 15.6 µM (inactive) | 19.9 µM (inactive) | – | – | – | – | –
COc1cc(C2SC(=N)Nc3c2c(C)nn3C(=O)c2ccc(Cl)cc2)ccc1O (stereo not given) | 0.236 µM (active) | > 10 µM (inactive) | – | – | – | – | –
Cc1ccc(C2NC(=N)NC3=C2CCOc2c3ccc3ccccc23)cc1 (stereo not given) | – | 6.04 µM (inactive) | – | – | – | – | –
CC(=O)Oc1ccc2cc(Oc3ccccc3)c(=O)oc2c1 | > 100 µM (inactive) | 39.9 µM (inactive) | – | – | – | – | –
CCc1ccc2c(c1)/C(=C1/Nc3ccccc3/C1=N/O)C(=O)N2 | 7.53 µM (inactive) | 8 µM (inactive) | – | – | – | – | –
CCOC(=O)C1C(c2ccccc2)C2(C#N)C(=N)OC1(C)C2(C#N)C#N (stereo not given) | 14.7 µM (inactive) | – | – | – | – | – | –
CN(C)C1(N(C)C)Oc2c(c(=O)n(C)c(=O)n2C)C(c2ccc(Br)cc2)C1(F)F (stereo not given) | – | > 100 µM (inactive) | – | – | – | – | –
Cn1nc2ccc3nccc(N4CCN(CCO)CC4)c3c2n1 | > 100 µM (inactive) | > 100 µM (inactive) | – | – | – | – | –
CCOC1=C2N=C(C(CC)c3ccc(F)cc3)N=C2C(=O)c2ccccc21 (stereo not given) | – | – | 27.8 µM (inactive) | 22.4 µM (inactive) | 25.6 µM (inactive) | 19 µM (inactive) | GI50 (XF498): 17.5 µM (inactive)
